The source made the active and inactive calls.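 The calls were made as follows: active = target enzyme inhibited at least 50% at a set dose, and selective over every off-target enzyme by a set factor; inactive = weaker inhibition or too little selectivity.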
Assays:
MW 30 kDa = assay: competitive ABPP of pPAFAH versus proteome hydrolases – biochemical, gel-based, FP-Rh fluorescence, complex proteome, SAR compounds, selectivity assay for pPAFAH inhibitor project, SAR follow-up (AID 588774); conditions: at 1 µM, stronger effect = higher value;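 as to inhibition: 0% = DMSO-only band intensity and 100% = blank gel background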
ABHD4 = ABHD4 (UniProt Q8VD66); assay: as above; conditions: stronger effect = higher value
FAAH = assay: as above; conditions: stronger effect = higher value
MW 32 kDa = assay: as above; conditions: at 1 µM, stronger effect = higher value
[1] = as above; conditions: at 10 µM
[2] = target: Monoglyceride lipase (Mus musculus) (UniProt O35678); assay: as above; conditions: MAGL, stronger effect = higher value
pPAFAH = assay: as above; conditions: anti-targets inhibited, at 10 µM
ABHD6 = assay: as above; conditions: stronger effect = higher value
[3] = target: Platelet-activating factor acetylhydrolase (Mus musculus) (UniProt Q60963); assay: as above; conditions: pPAFAH, stronger effect = higher value
ABHD3 = assay: as above; conditions: stronger effect = higher value
LYPLA2 = assay: as above; conditions: stronger effect = higher value
LYPLA1 = assay: as above; conditions: stronger effect = higher value

Chain of Platelet-activating factor acetylhydrolase (Mus musculus) (Q60963 whole entry, looked up): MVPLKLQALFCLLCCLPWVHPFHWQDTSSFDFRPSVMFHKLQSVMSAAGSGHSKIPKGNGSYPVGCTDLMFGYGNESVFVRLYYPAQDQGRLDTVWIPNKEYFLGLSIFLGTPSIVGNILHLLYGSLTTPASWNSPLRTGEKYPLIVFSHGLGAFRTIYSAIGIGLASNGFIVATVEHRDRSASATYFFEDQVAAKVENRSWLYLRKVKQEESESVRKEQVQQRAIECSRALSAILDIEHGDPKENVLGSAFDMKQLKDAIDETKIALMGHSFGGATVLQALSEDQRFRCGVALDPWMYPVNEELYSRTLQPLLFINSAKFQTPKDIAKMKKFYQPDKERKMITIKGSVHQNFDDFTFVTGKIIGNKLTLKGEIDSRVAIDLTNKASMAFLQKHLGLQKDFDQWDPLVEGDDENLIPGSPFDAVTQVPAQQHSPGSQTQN
Chain of ABHD4 (Q8VD66 whole entry, looked up): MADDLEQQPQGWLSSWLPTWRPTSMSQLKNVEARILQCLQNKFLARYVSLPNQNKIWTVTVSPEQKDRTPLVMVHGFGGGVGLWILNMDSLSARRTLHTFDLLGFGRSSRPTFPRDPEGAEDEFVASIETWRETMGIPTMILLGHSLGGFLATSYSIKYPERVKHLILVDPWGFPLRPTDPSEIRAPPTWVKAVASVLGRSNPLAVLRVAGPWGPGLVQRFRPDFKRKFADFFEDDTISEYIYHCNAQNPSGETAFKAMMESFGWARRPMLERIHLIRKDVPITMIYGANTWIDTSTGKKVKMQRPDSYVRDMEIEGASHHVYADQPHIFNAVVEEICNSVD
Chain of Monoglyceride lipase (Mus musculus) (O35678 whole entry, looked up): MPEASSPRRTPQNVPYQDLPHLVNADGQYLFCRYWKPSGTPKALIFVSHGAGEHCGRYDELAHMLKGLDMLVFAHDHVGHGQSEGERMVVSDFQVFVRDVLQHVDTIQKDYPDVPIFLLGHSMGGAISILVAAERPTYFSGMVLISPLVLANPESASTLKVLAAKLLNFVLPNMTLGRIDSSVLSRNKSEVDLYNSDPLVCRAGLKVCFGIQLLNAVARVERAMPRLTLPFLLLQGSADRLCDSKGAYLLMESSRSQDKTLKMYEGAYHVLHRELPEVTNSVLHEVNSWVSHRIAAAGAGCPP

## Cc1cc(N2CCN(C(=O)n3ncc(-c4ccc(OC(F)(F)F)cc4)n3)CC2)c2ccccc2n1
MW 30 kDa
  inhibition: 44%
ABHD4; at 10 µM
  inhibition: 100%
ABHD4; inhibition, at 0.1 µM
  inhibition: 75%
ABHD4; inhibition, at 1 µM
  inhibition: 92%
FAAH; at 10 µM
  inhibition: 92% (inactive)
FAAH; inhibition, at 0.1 µM
  inhibition: 38%
FAAH; inhibition, at 1 µM
  inhibition: 91%
MW 32 kDa
  inhibition: 43%
[1]; ABHD3, anti-targets inhibited
  anti-target count: 9
[1]; ABHD4, anti-targets inhibited
  anti-target count: 9
[1]; ABHD6, anti-targets inhibited
  anti-target count: 9
[1]; FAAH, anti-targets inhibited
  anti-target count: 9
[1]; LYPLA1, anti-targets inhibited
  anti-target count: 9
[1]; LYPLA2, anti-targets inhibited
  anti-target count: 9
[1]; MAGL, anti-targets inhibited
  anti-target count: 9
[2]; at 10 µM
  inhibition: 53% (inactive)
[2]; inhibition, at 1 µM
  inhibition: 35%
pPAFAH
  anti-target count: 9
ABHD6; at 10 µM
  inhibition: 74% (inactive)
ABHD6; inhibition, at 0.1 µM
  inhibition: 22%
ABHD6; inhibition, at 1 µM
  inhibition: 60%
[3]; at 10 µM
  inhibition: 100%
[3]; inhibition, at 0.1 µM
  inhibition: 100%
[3]; inhibition, at 1 µM
  inhibition: 100%
ABHD3; at 10 µM
  inhibition: 100%
ABHD3; inhibition, at 0.1 µM
  inhibition: 75%
ABHD3; inhibition, at 1 µM
  inhibition: 92%
LYPLA2; at 10 µM
  inhibition: 96% (inactive)
LYPLA2; inhibition, at 1 µM
  inhibition: 39%
LYPLA1; at 10 µM
  inhibition: 100% (inactive)
LYPLA1; inhibition, at 1 µM
  inhibition: 51%

## Cc1cc(N2CCN(C(=O)n3ncc(-c4ccc(Cl)c(Cl)c4)n3)CC2)c2ccccc2n1
MW 30 kDa
  inhibition: 36%
ABHD4; at 10 µM
  inhibition: 100%
ABHD4; inhibition, at 0.1 µM
  inhibition: 69%
ABHD4; inhibition, at 1 µM
  inhibition: 96%
FAAH; at 10 µM
  inhibition: 88% (inactive)
FAAH; inhibition, at 0.1 µM
  inhibition: 29%
FAAH; inhibition, at 1 µM
  inhibition: 74%
MW 32 kDa
  inhibition: 12%
[1]; ABHD3, anti-targets inhibited
  anti-target count: 8
[1]; ABHD4, anti-targets inhibited
  anti-target count: 8
[1]; ABHD6, anti-targets inhibited
  anti-target count: 8
[1]; FAAH, anti-targets inhibited
  anti-target count: 8
[1]; LYPLA1, anti-targets inhibited
  anti-target count: 8
[1]; LYPLA2, anti-targets inhibited
  anti-target count: 8
[1]; MAGL, anti-targets inhibited
  anti-target count: 8
[2]; at 10 µM
  inhibition: 40% (inactive)
[2]; inhibition, at 1 µM
  inhibition: 26%
pPAFAH
  anti-target count: 8
ABHD6; at 10 µM
  inhibition: 61% (inactive)
ABHD6; inhibition, at 0.1 µM
  inhibition: 13%
ABHD6; inhibition, at 1 µM
  inhibition: 43%
[3]; at 10 µM
  inhibition: 100%
[3]; inhibition, at 0.1 µM
  inhibition: 97%
[3]; inhibition, at 1 µM
  inhibition: 98%
ABHD3; at 10 µM
  inhibition: 100%
ABHD3; inhibition, at 0.1 µM
  inhibition: 69%
ABHD3; inhibition, at 1 µM
  inhibition: 96%
LYPLA2; at 10 µM
  inhibition: 61% (inactive)
LYPLA2; inhibition, at 1 µM
  inhibition: 18%
LYPLA1; at 10 µM
  inhibition: 84% (inactive)
LYPLA1; inhibition, at 1 µM
  inhibition: 24%

## COc1ccc(-c2cnn(C(=O)N3CCN(c4cc(C)nc5ccccc45)CC3)n2)cc1
MW 30 kDa
  inhibition: 50%
ABHD4; at 10 µM
  inhibition: 100% (inactive)
ABHD4; inhibition, at 1 µM
  inhibition: 86%
FAAH; at 10 µM
  inhibition: 86%
FAAH; inhibition, at 0.1 µM
  inhibition: 60%
FAAH; inhibition, at 1 µM
  inhibition: 83%
MW 32 kDa
  inhibition: 52%
[1]; ABHD3, anti-targets inhibited
  anti-target count: 8
[1]; ABHD4, anti-targets inhibited
  anti-target count: 8
[1]; ABHD6, anti-targets inhibited
  anti-target count: 8
[1]; FAAH, anti-targets inhibited
  anti-target count: 8
[1]; LYPLA1, anti-targets inhibited
  anti-target count: 8
[1]; LYPLA2, anti-targets inhibited
  anti-target count: 8
[1]; MAGL, anti-targets inhibited
  anti-target count: 8
[2]; at 10 µM
  inhibition: 45% (inactive)
[2]; inhibition, at 1 µM
  inhibition: 35%
pPAFAH
  anti-target count: 8
ABHD6; at 10 µM
  inhibition: 70% (inactive)
ABHD6; inhibition, at 0.1 µM
  inhibition: 12%
ABHD6; inhibition, at 1 µM
  inhibition: 58%
[3]; at 10 µM
  inhibition: 96%
[3]; inhibition, at 0.1 µM
  inhibition: 85%
[3]; inhibition, at 1 µM
  inhibition: 88%
ABHD3; at 10 µM
  inhibition: 100% (inactive)
ABHD3; inhibition, at 1 µM
  inhibition: 86%
LYPLA2; at 10 µM
  inhibition: 95% (inactive)
LYPLA2; inhibition, at 1 µM
  inhibition: 56%
LYPLA1; at 10 µM
  inhibition: 92% (inactive)
LYPLA1; inhibition, at 0.1 µM
  inhibition: 4%
LYPLA1; inhibition, at 1 µM
  inhibition: 74%

## Cc1cc(N2CCN(C(=O)n3ncc(-c4ccc([N+](=O)[O-])cc4)n3)CC2)c2ccccc2n1
MW 30 kDa
  inhibition: 67%
ABHD4; at 10 µM
  inhibition: 100% (inactive)
ABHD4; inhibition, at 0.1 µM
  inhibition: 11%
ABHD4; inhibition, at 1 µM
  inhibition: 94%
FAAH; at 10 µM
  inhibition: 87% (inactive)
FAAH; inhibition, at 0.1 µM
  inhibition: 6%
FAAH; inhibition, at 1 µM
  inhibition: 81%
MW 32 kDa
  inhibition: 59%
[1]; ABHD3, anti-targets inhibited
  anti-target count: 9
[1]; ABHD4, anti-targets inhibited
  anti-target count: 9
[1]; ABHD6, anti-targets inhibited
  anti-target count: 9
[1]; FAAH, anti-targets inhibited
  anti-target count: 9
[1]; LYPLA1, anti-targets inhibited
  anti-target count: 9
[1]; LYPLA2, anti-targets inhibited
  anti-target count: 9
[1]; MAGL, anti-targets inhibited
  anti-target count: 9
[2]; at 10 µM
  inhibition: 84% (inactive)
[2]; inhibition, at 0.1 µM
  inhibition: 28%
[2]; inhibition, at 1 µM
  inhibition: 68%
pPAFAH
  anti-target count: 9
ABHD6; at 10 µM
  inhibition: 72% (inactive)
ABHD6; inhibition, at 0.1 µM
  inhibition: 17%
ABHD6; inhibition, at 1 µM
  inhibition: 59%
[3]; at 10 µM
  inhibition: 99%
[3]; inhibition, at 0.1 µM
  inhibition: 97%
[3]; inhibition, at 1 µM
  inhibition: 99%
ABHD3; at 10 µM
  inhibition: 100% (inactive)
ABHD3; inhibition, at 0.1 µM
  inhibition: 11%
ABHD3; inhibition, at 1 µM
  inhibition: 94%
LYPLA2; at 10 µM
  inhibition: 100% (inactive)
LYPLA2; inhibition, at 1 µM
  inhibition: 58%
LYPLA1; at 10 µM
  inhibition: 100% (inactive)
LYPLA1; inhibition, at 0.1 µM
  inhibition: 5%
LYPLA1; inhibition, at 1 µM
  inhibition: 86%

## Cc1cc(N2CCN(C(=O)n3ncc(-c4ccccc4)n3)CC2)c2ccccc2n1
MW 30 kDa
  inhibition: 51%
ABHD4; at 10 µM
  inhibition: 100% (inactive)
ABHD4; inhibition, at 1 µM
  inhibition: 85%
FAAH; at 10 µM
  inhibition: 83%
FAAH; inhibition, at 0.1 µM
  inhibition: 63%
FAAH; inhibition, at 1 µM
  inhibition: 82%
MW 32 kDa
  inhibition: 43%
[1]; ABHD3, anti-targets inhibited
  anti-target count: 9
[1]; ABHD4, anti-targets inhibited
  anti-target count: 9
[1]; ABHD6, anti-targets inhibited
  anti-target count: 9
[1]; FAAH, anti-targets inhibited
  anti-target count: 9
[1]; LYPLA1, anti-targets inhibited
  anti-target count: 9
[1]; LYPLA2, anti-targets inhibited
  anti-target count: 9
[1]; MAGL, anti-targets inhibited
  anti-target count: 9
[2]; at 10 µM
  inhibition: 58% (inactive)
[2]; inhibition, at 1 µM
  inhibition: 36%
pPAFAH
  anti-target count: 9
ABHD6; at 10 µM
  inhibition: 71% (inactive)
ABHD6; inhibition, at 1 µM
  inhibition: 54%
[3]; at 10 µM
  inhibition: 99%
[3]; inhibition, at 0.1 µM
  inhibition: 99%
[3]; inhibition, at 1 µM
  inhibition: 99%
ABHD3; at 10 µM
  inhibition: 100% (inactive)
ABHD3; inhibition, at 1 µM
  inhibition: 85%
LYPLA2; at 10 µM
  inhibition: 99% (inactive)
LYPLA2; inhibition, at 1 µM
  inhibition: 55%
LYPLA1; at 10 µM
  inhibition: 96% (inactive)
LYPLA1; inhibition, at 1 µM
  inhibition: 86%

Source: PubChem BioAssay AID588774 (The Scripps Research Institute Molecular Screening Center, 2011)
